Laboratory results reported in patent US20050148991A1, “Device for using patient blood as diluent in administering pharmaceuticals” (priority 2002, published 2005).

Experiment: early study in humans receiving RSR13 via injection in a peripheral vein
Assay type: in vivo
Excerpt: Therefore, the use of RSR13 and its physiologically acceptable salts in the present methods is contemplated. The preparation and uses for 2-[4-[2-[(3,5-dimethylphenyl)amino]-2-oxoethyl]phenoxy]-2-methyl-propionic acid and its physiologically acceptable salts has been described previously in U.S. Pat. Nos. 5,049,695; 5,122,539; 5,290,803; 5,432,191; 5,525,630; 5,648,375; 5,661,182; 5,677,330; 5,705,521; 5,872,888; and 5,927,283, and pending U.S. patent application Ser. No. 10/082,130, filed Feb. 25, 2002.

SMILES: Cc1cc(C)cc(NC(=O)Cc2ccc(OC(C)(C)C(=O)O)cc2)c1 [RSR13, 2-[4-[2-[(3,5-dimethylphenyl)amino]-2-oxoethyl]phenoxy]-2-methyl-propionic acid]
- pain on injection: some recipients complained of pain near the site of injection and downstream
